“And” between values parts separate entries of the source, which are not always exact repeats. Equal entries are not always repeated. Inconclusive results and toxic doses are left out. Rule as the data show it: active = T/C of 150% or more; inactive = T/C below 125%.
Test system: L1210 leukemia ip in BDF1 mice, survival T/C
Experiment: NCI In Vivo Anticancer Drug Screen. Data for tumor model L1210 Leukemia (intraperitoneal) in B6D2F1 (BDF1) mice
Settings: endpoint: mean survival time, higher = longer survival
In short: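 Transplanted-tumor mice were given test agent; controls received vehicle only. Survival readings from the two groups were divided (treated over control).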

[1] = dose: 50.0 mg/kg/injection, schedule: Q04DX002 (ip), vehicle: Klucel (hydroxypropylcellulose) (HPC)
[2] = dose: 100.0 mg/kg/injection, schedule: Q01DX009 (ip), vehicle: Klucel (hydroxypropylcellulose) (HPC)
[3] = dose: 100.0 mg/kg/injection, schedule: Q04DX002 (ip), vehicle: Klucel (hydroxypropylcellulose) (HPC)
[4] = dose: 100.0 mg/kg/injection, schedule: Q01DX009 (ip), vehicle: saline with Tween-80
[5] = dose: 200.0 mg/kg/injection, schedule: Q01DX009 (ip), vehicle: saline with Tween-80
[6] = dose: 50.0 mg/kg/injection, schedule: Q01DX009 (ip), vehicle: saline with Tween-80
[7] = dose: 200.0 mg/kg/injection, schedule: Q01DX009 (ip), vehicle: Klucel (hydroxypropylcellulose) (HPC)
[8] = dose: 400.0 mg/kg/injection, schedule: Q01DX009 (ip), vehicle: Klucel (hydroxypropylcellulose) (HPC)
[9] = dose: 100.0 mg/kg/injection, schedule: Q01DX001 (ip), vehicle: saline
[10] = dose: 200.0 mg/kg/injection, schedule: Q01DX001 (ip), vehicle: saline
[11] = dose: 400.0 mg/kg/injection, schedule: Q01DX001 (ip), vehicle: saline
[12] = dose: 100.0 mg/kg/injection, schedule: Q04DX003 (ip), vehicle: Klucel (hydroxypropylcellulose) (HPC)
[13] = dose: 200.0 mg/kg/injection, schedule: Q04DX003 (ip), vehicle: Klucel (hydroxypropylcellulose) (HPC)
[14] = dose: 400.0 mg/kg/injection, schedule: Q04DX003 (ip), vehicle: Klucel (hydroxypropylcellulose) (HPC)
[15] = dose: 100.0 mg/kg/injection, schedule: Q01DX009 (ip), vehicle: saline
[16] = dose: 200.0 mg/kg/injection, schedule: Q01DX009 (ip), vehicle: saline
[17] = dose: 400.0 mg/kg/injection, schedule: Q01DX009 (ip), vehicle: saline

Measured: T/C

c1ccc2c(c1)C1c3cccc[n+]3C2C2C1CC1C3c4ccccc4C(C12)[n+]1ccccc13 (configuration not stated)
inactive: dose: 1.56 mg/kg/injection, schedule: Q04DX003 (ip), vehicle: saline 100 % of control | dose: 3.12 mg/kg/injection, schedule: Q01DX009 (ip), vehicle: saline 111 % of control | dose: 3.12 mg/kg/injection, schedule: Q04DX003 (ip), vehicle: saline 96 % of control | dose: 6.25 mg/kg/injection, schedule: Q01DX009 (ip), vehicle: saline 100 % of control and 88 % of control | dose: 6.25 mg/kg/injection, schedule: Q04DX003 (ip), vehicle: saline 95 % of control | dose: 12.5 mg/kg/injection, schedule: Q01DX009 (ip), vehicle: saline 100 % of control and 102 % of control

CC(=O)Oc1ccc(N)cc1OC(C)=O
inactive: dose: 150.0 mg/kg/injection, schedule: Q01DX001 (ip), vehicle: steriod suspending solution 95 % of control

COc1ccc(CCCNCCCCCCNCCCc2ccc(OC)cc2)cc1
inactive: dose: 25.0 mg/kg/injection, schedule: Q01DX009 (ip), vehicle: Klucel (hydroxypropylcellulose) (HPC) 104 % of control | dose: 50.0 mg/kg/injection, schedule: Q01DX009 (ip), vehicle: Klucel (hydroxypropylcellulose) (HPC) 93 % of control | [1] 96 % of control | [2] 86 % of control | [3] 96 % of control

COC(=O)C1=CC2c3ccccc3C1c1ccccc12
inactive: [4] 89 % of control | [5] 105 % of control | dose: 400.0 mg/kg/injection, schedule: Q01DX009 (ip), vehicle: saline with Tween-80 98 % of control

O=Cc1nccn1Cc1ccccc1
inactive: dose: 25.0 mg/kg/injection, schedule: Q01DX009 (ip), vehicle: saline with Tween-80 93 % of control | [6] 98 % of control | [4] 100 % of control

COc1ccc(/C=N/NC(=O)COCC(=O)N/N=C/c2ccc(OC)c(OC)c2)cc1OC
inactive: [2] 101 % of control | [7] 95 % of control | [8] 92 % of control

CCCCN(CCCC)C(=O)OCC
inactive: [9] 103 % of control | [10] 94 % of control | [11] 101 % of control

O=C(CNC(=O)Nc1ccc(Cl)c(Cl)c1)N/N=C/c1c(O)ccc2ccccc12
inactive: [6] 93 % of control | [4] 93 % of control | [5] 91 % of control

c1ccc2c(C3OCC4(CCC4)CO3)cccc2c1
inactive: [2] 91 % of control | [12] 91 % of control | [7] 96 % of control | [13] 100 % of control | [8] 97 % of control | [14] 94 % of control

CC(C)=CCNC(=O)NS(=O)(=O)c1ccc(C)cc1
inactive: [1] 104 % of control | [2] 100 % of control | [3] 89 % of control | [7] 107 % of control | dose: 200.0 mg/kg/injection, schedule: Q04DX002 (ip), vehicle: Klucel (hydroxypropylcellulose) (HPC) 93 % of control | [8] 96 % of control

N/N=C\C(=N/N)C(O)C(O)C(O)C(O)CO (configuration not stated)
inactive: dose: 100.0 mg/kg/injection, schedule: Q04DX003 (ip), vehicle: saline with Tween-80 86 % of control | dose: 200.0 mg/kg/injection, schedule: Q04DX003 (ip), vehicle: saline with Tween-80 88 % of control | dose: 400.0 mg/kg/injection, schedule: Q04DX003 (ip), vehicle: saline with Tween-80 93 % of control

Cc1nc2c(c(=O)[nH]1)OCN(C)C2
inactive: dose: 50.0 mg/kg/injection, schedule: Q01DX001 (ip), vehicle: saline 104 % of control | [9] 101 % of control | [10] 109 % of control | [11] 122 % of control

O=c1ccc2nc3cc(Cl)ccc3sc-2c1
inactive: [2] 95 % of control | [7] 96 % of control | [8] 87 % of control

O=c1[nH][nH]c(=S)c2[nH]c(=S)n(Cc3ccccc3)c12
inactive: [9] 90 % of control | [10] 93 % of control | [11] 90 % of control

OCCCCc1ccccc1
inactive: dose: 100.0 mg/kg/injection, schedule: Q01DX001 (ip), vehicle: saline sonified 95 % of control | dose: 100.0 mg/kg/injection, schedule: Q01DX009 (ip), vehicle: saline sonified 104 % of control | dose: 200.0 mg/kg/injection, schedule: Q01DX001 (ip), vehicle: saline sonified 101 % of control | dose: 200.0 mg/kg/injection, schedule: Q01DX009 (ip), vehicle: saline sonified 97 % of control | dose: 400.0 mg/kg/injection, schedule: Q01DX001 (ip), vehicle: saline sonified 111 % of control

O=C(NN=C1CCCC1)c1ccccc1O
inactive: [15] 102 % of control | [16] 102 % of control | [17] 120 % of control

CCCCCCCCCCCCCCCCCC(=O)Oc1cccc2cccnc12
inactive: dose: 100.0 mg/kg/injection, schedule: Q04DX002 (ip), vehicle: saline with Tween-80 93 % of control | dose: 200.0 mg/kg/injection, schedule: Q04DX002 (ip), vehicle: saline with Tween-80 93 % of control | dose: 400.0 mg/kg/injection, schedule: Q04DX002 (ip), vehicle: saline with Tween-80 106 % of control

Cc1cc(C)c(NC(=O)Nc2ccccc2)c(C)c1
inactive: [2] 96 % of control | [12] 98 % of control | [7] 104 % of control | [13] 98 % of control | [8] 95 % of control | [14] 101 % of control

O=C(O)C1=CCCC1
inactive: dose: 222.0 mg/kg/injection, schedule: Q01DX Z (ip), vehicle: saline 103 % of control | dose: 333.0 mg/kg/injection, schedule: Q01DX Z (ip), vehicle: saline 102 % of control | dose: 500.0 mg/kg/injection, schedule: Q01DX Z (ip), vehicle: saline 96 % of control

O=[N+]([O-])c1ccc(CSCc2ccc(Cl)cc2)cc1
inactive: dose: 100.0 mg/kg/injection, schedule: Q01DX001 (ip), vehicle: carboxymethylcellulose (CMC) 97 % of control | dose: 200.0 mg/kg/injection, schedule: Q01DX001 (ip), vehicle: carboxymethylcellulose (CMC) 97 % of control | dose: 400.0 mg/kg/injection, schedule: Q01DX001 (ip), vehicle: carboxymethylcellulose (CMC) 94 % of control

CCCCCCCCC(=O)NCCCOC
inactive: [2] 108 % of control | [12] 96 % of control | [7] 111 % of control | [13] 91 % of control | [8] 97 % of control | [14] 91 % of control

CCOC(=N)N1C(N)=NC(=O)C1c1ccccc1 (configuration not stated)
inactive: [15] 105 % of control | dose: 100.0 mg/kg/injection, schedule: Q04DX003 (ip), vehicle: saline 110 % of control | [16] 110 % of control | dose: 200.0 mg/kg/injection, schedule: Q04DX003 (ip), vehicle: saline 103 % of control | [17] 96 % of control | dose: 400.0 mg/kg/injection, schedule: Q04DX003 (ip), vehicle: saline 105 % of control

From PubChem BioAssay AID248 (DTP/NCI, 2004)
